According to patent US5665760A, “Lyophilized thioxanthenone antitumor agents” (priority 1995, dated 1997):

Key:
Mammary 16/C/Adr = assay: antitumor activity in mice against Mammary 16/C/Adr (adriamycin resistant); format: in vivo; settings: 960 mg/kg total, 3 hr infusion days 1, 4
Description: (§1) Representative examples of the invention were tested for antitumor activity in mice according to the following procedure:
(§2) The animals were pooled, implanted subcutaneously with 30 to 60 mg tumor fragments by 12-gauge trocar, and again pooled before unselective distribution to the various treatment and control groups. For early-stage treatment, chemotherapy was started within 1 to 5 days after tumor implantation while the number of cells was relatively small (10^7 to 10^8 cells). For advanced-stage treatment, chemotherapy was delayed until the tumor became relatively large (200 to 300 mg in size). A 300-mg tumor contains approximately 3×10^8 total cells. Tumors within a given advanced-stage trial were within a 2.5-fold size range for 90% of the animals. Tumors were measured with a caliper weekly (or twice weekly for the more rapidly growing tumors). Mice were sacrificed when their tumors reached 1500 mg (i.e., before they can cause the animal discomfort). Tumor weights were estimated from two-dimensional measurements.
(§3) The treatment and control groups were measured when the control group tumors reached approximately 700 to 1200 mg in size (Median of Group). The median tumor weight of each group was determined (including zeros). The T/C value (weight of treated tumors over the weight of control tumors) in percent is an indication of antitumor effectiveness: A T/C equal to or less than 42% is considered significant antitumor activity by the Drug Evaluation Branch of the Division of Cancer Treatment (NCl). A T/C value <10% is considered to indicate highly significant antitumor activity. A body weight loss nadir (mean of group) of greater than 20% or greater than 20% drug-deaths is considered to indicate an excessively toxic dosage.

Mammary 16/C = assay: antitumor activity in mice against Mammary 16/C; format: in vivo; settings: 4 hr infusion days 1, 4; for Tumor Free: 13 days of observation
Description: as §1
as §2, with “Tumors within a given advanced-stage trial were within a 2.5-fold size range for 90% of the animals.” left out
The treatment and control groups were measured when the control group tumors reached approximately 700 to 1200 mg in size (Median of Group). The median tumor weight of each group was determined (including zeros). […] A T/C value <10% is considered to indicate highly significant antitumor activity.

[1] = test system: Human Adeno Squamous Lung #125; assay: antitumor activity in mice against Human Adeno Squamous Lung #125; format: in vivo; settings: 16 hr infusion days 7, 20
colon adenocarcinoma #38 = assay: antitumor activity in mice against colon adenocarcinoma #38; format: in vivo
Colon #51 = assay: antitumor activity in mice against Colon #51; format: in vivo; settings: 3 hr infusion days 3, 7; for Tumor Free: 50 days of observation
Description: as §1, §2, §3

[2] = test system: pancreatic ductal adenocarcinoma #03; assay: antitumor activity in mice against pancreatic ductal adenocarcinoma #03 (Panc 03); format: in vivo
[3] = excipient alone; cited from earlier work
[4] = 600 mg/kg total, 4 hr infusion days 6, 13
[5] = 960 mg/kg total, 4 hr infusion days 6, 13

CCN(CC)CCNc1ccc(CNC)c2sc3ccccc3c(=O)c12 [Example 5, 1-[[2-(Diethylamino)ethyl]amino]-4-[(methylamino)-methyl]thioxanthen-9-one]
T/C Value (Mammary 16/C/Adr): 23%
Wt. Loss at Nadir (Mammary 16/C/Adr): -2.8 g/mouse
T/C Value (Mammary 16/C; 454 mg/kg total): 16%
Wt. Loss at Nadir (Mammary 16/C; 454 mg/kg total): -1.2 g/mouse
Tumor Free (Mammary 16/C; 454 mg/kg total): 0/7
T/C Value (Mammary 16/C; 720 mg/kg total): 18%
Wt. Loss at Nadir (Mammary 16/C; 720 mg/kg total): -2.0 g/mouse
Tumor Free (Mammary 16/C; 720 mg/kg total): 0/7
T/C Value ([1]; 600 mg/kg total): 15%
Wt. Loss at Nadir ([1]; 600 mg/kg total): -0.4 g/mouse
Tumor Free ([1]; 600 mg/kg total, 33 days of observation): 0/5
Tumor Free ([1]; 600 mg/kg total, 132 days of observation): 0/5
T/C Value ([1]; 960 mg/kg total): 16%
Wt. Loss at Nadir ([1]; 960 mg/kg total): -0.4 g/mouse
Tumor Free ([1]; 960 mg/kg total, 33 days of observation): 1/4
Tumor Free ([1]; 960 mg/kg total, 132 days of observation): 0/4
activity against colon adenocarcinoma #38 (colon adenocarcinoma #38; 300 mg/kg p.o.): active
T/C Value (colon adenocarcinoma #38; 477 mg/kg total, 3-15 bolus): 9%
Wt. Loss at Nadir (colon adenocarcinoma #38; 477 mg/kg total, 3-15 bolus): -2.8 g/mouse
Tumor Free (colon adenocarcinoma #38; 477 mg/kg total, 3-15 bolus, 100 days of observation): 0/5
T/C Value (colon adenocarcinoma #38; [4]): 26%
Wt. Loss at Nadir (colon adenocarcinoma #38; [4]): -2.0 g/mouse
Tumor Free (colon adenocarcinoma #38; 600 mg/kg total, 4 hr infusion days 6, 13, 20 days of observation): 0/7
Tumor Free (colon adenocarcinoma #38; 600 mg/kg total, 4 hr infusion days 6, 13, 100 days of observation): 0/7
T/C Value (colon adenocarcinoma #38; 732 mg/kg total, 3-15 bolus): 0%
Wt. Loss at Nadir (colon adenocarcinoma #38; 732 mg/kg total, 3-15 bolus): -2.0 g/mouse
Tumor Free (colon adenocarcinoma #38; 732 mg/kg total, 3-15 bolus, 100 days of observation): 1/5
T/C Value (colon adenocarcinoma #38; [5]): 11%
Wt. Loss at Nadir (colon adenocarcinoma #38; [5]): -2.9 g/mouse
Tumor Free (colon adenocarcinoma #38; 960 mg/kg total, 4 hr infusion days 6, 13, 20 days of observation): 2/7
Tumor Free (colon adenocarcinoma #38; 960 mg/kg total, 4 hr infusion days 6, 13, 100 days of observation): 1/7
Drug Deaths (colon adenocarcinoma #38; Table 2, i.v., total dose mg/kg by Example: 2:600, 5:960, 6:132, 7:840, 16(a):1000, 18(e):180): 0
T/C (colon adenocarcinoma #38; iv): 11%
Weight Loss (colon adenocarcinoma #38; mouse, in vivo, iv): 2.9 g
T/C Value (Colon #51; 454 mg/kg total): 12%
Wt. Loss at Nadir (Colon #51; 454 mg/kg total): -2.8 g/mouse
Tumor Free (Colon #51; 454 mg/kg total): 0/7
T/C Value (Colon #51; 720 mg/kg total): 8%
Wt. Loss at Nadir (Colon #51; 720 mg/kg total): -1.1 g/mouse
Tumor Free (Colon #51; 720 mg/kg total): 0/5
T/C [2]: 0%
T/C Value ([2]; 222 mg/kg total, 3 hr infusion): 0%
Wt. Loss at Nadir ([2]; 222 mg/kg total, 3 hr infusion): -1.6 g/mouse
Tumor Free ([2]; 222 mg/kg total, 3 hr infusion, 108 days of observation): 1/4
Weight Loss ([2]; Table 1, average body weight 25 g, total doses as in E1): 1.6 g
Drug Deaths ([2]; Table 1, total doses as in E1): 0

[Cl-].[Na+] [NaCl, sodium chloride]
glass transition temperature of excipient [3]: -87 °C

OC[C@H]1O[C@@](CO)(O[C@H]2O[C@H](CO)[C@@H](O)[C@H](O)[C@H]2O)[C@@H](O)[C@@H]1O [sucrose]
glass transition temperature of excipient [3]: -32 °C
